Patent US20110053897A1 (IRM LLC, priority 2009, published 2011)

Each compound was assayed against T1, Syk kinase (Homo sapiens, UniProt P43405) (assay: Syk kinase inhibition, Caliper LabChip off-chip mobility-shift kinase assay). Conditions: Caliper LabChip assay; read-out: Syk Enzyme IC50.
T1 construct: purchased
Assay type: biochemical
Outline: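 Purified Syk pre-incubated 15 min with compound in 100 mM HEPES pH 7.5, 1 mM DTT, 10 mM MgCl2 or MnCl2, 0.002% Brij-35, then 1.5 μM fluorescein peptide and ATP at apparent KM added; 1–1.5 h at room temperature, 4% DMSO, EDTA stop. Microfluidic mobility-shift product/substrate conversion gave % inhibition; IC50 from 12-point series (10–0.00003 μM) by 4-parameter fit.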

Structure (SMILES) | IC50 [µM]
O=c1c2c(N[C@H]3CC[C@@H](O)CC3)nc(Nc3cnccn3)cc2ccn1CC(F)(F)F [compound 1025] | 0.016
NC(=O)Cn1ccc2cc(-c3cnc(N)nc3)nc(NC3CCCC3)c2c1=O [compound 757] | 0.059
[2H]C([2H])([2H])n1ccc2cc(-c3cnc(N)nc3)nc(N[C@H]3CC[C@@H](O)CC3)c2c1=O [compound 1026] | 0.021
N#CCn1ccc2cc(-c3cnc(N)nc3)nc(NC3CCOCC3)c2c1=O [compound 751] | 0.07
O=c1c2c(N[C@H]3CC[C@@H](O)CC3)nc(Nc3cnccn3)cc2ccn1CC(O)C(F)(F)F (stereo partly drawn) [compound 1012] | 0.056
CCn1ccc2cc(-c3cnc(N)nc3)nc(N[C@H]3C[C@@H](CO)C3)c2c1=O [compound 748] | 0.007

Next, values leading:

IC50 [µM] | Structure (SMILES)
0.103 | Cn1cc(-c2ccnc(Nc3cc4ccn(CCO)c(=O)c4c(NC(C)(C)C)n3)c2)cn1 [compound 830]
0.017 | CC1(Nc2nc(Nc3cnccn3)cc3ccn(CCO)c(=O)c23)CC1 [compound 838]
0.035 | CC(C)(C)Nc1nc(Nc2cc(C(C)(C)O)ncn2)cc2ccn(CCO)c(=O)c12 [compound 716]
0.099 | Cn1cc2cc(Nc3nc(Nc4c[n+]([O-])ccn4)cc4ccn(CCO)c(=O)c34)ccc2n1 [compound 658]
0.263 | CCn1ccc2cc(Nc3cnccn3)nc(Nc3ccc(C(=O)N4CCC(O)C4)cc3)c2c1=O (stereo not drawn) [compound 833]
0.018 | O=c1c2c(N[C@H]3CC[C@@H](O)CC3)nc(Nc3cnccn3)cc2ccn1CCCO [compound 948]
0.092 | CCn1ccc2cc(Nc3cc(C)ccn3)nc(N[C@H](C)CO)c2c1=O [compound 962]
0.059 | CC(C)(C)Nc1nc(Nc2cc(CN)ccn2)cc2ccn(CCO)c(=O)c12 [compound 707]
0.237 | COCCNCc1ccnc(Nc2cc3ccn(CCO)c(=O)c3c(NC(C)(C)C)n2)c1 [compound 694]
0.579 | CC(C)(C)Nc1nc(Nc2cc(C(C)(C)C(N)=O)ccn2)cc2ccn(CCO)c(=O)c12 [compound 862]
0.121 | C=Cc1cc(Nc2cc3ccn(CCO)c(=O)c3c(NC(C)(C)C)n2)ncn1 [compound 618, 8-(tert-butylamino)-2-(2-hydroxyethyl)-6-(6-vinylpyrimidin-4-ylamino)-2,7-naphthyridin-1(2H)-one]
0.168 | Cc1c2ccc(Nc3nc(Nc4cnccn4)cc4ccn(CCO)c(=O)c34)cc2nn1C [compound 656]
0.0604 | [2H]C([2H])([2H])n1ccc2cc(Nc3cc(Cl)ccn3)nc(N[C@@H](C)CO)c2c1=O [compound 1051]
0.216 | CCn1ccc2cc(Nc3cnccn3)nc(N[C@H](CO)C(C)(C)C)c2c1=O [compound 807]
0.009 | CC(C)(C)Nc1nc(Nc2cc(-c3ncccn3)ccn2)cc2ccn(CCO)c(=O)c12 [compound 878]
2.19 | CCOC(=O)c1cnn(-c2cc(Nc3cc4ccn(CCO)c(=O)c4c(NC(C)(C)C)n3)ncn2)c1 [compound 889]
0.023 | CCn1ccc2cc(Nc3cc(C)ccn3)nc(N[C@H]3CC[C@H](O)C3)c2c1=O [compound 945]

Same assay, conditions: read-out: Syk Enzyme IC50

Structure (SMILES) | IC50 [µM]
Cc1ccnc(Nc2cc3cc[nH]c(=O)c3c(Nc3ccc(N4CCO[C@H](C)C4)c(C)c3)n2)c1 [compound 584] | 2.68
COc1cncc(-c2cc3cc[nH]c(=O)c3c(Nc3ccc4c(c3)C3CC4CN(C(=O)C(F)(F)F)C3)n2)n1 (stereo not drawn) [compound 95] | 2.37
Cc1ccc(-c2cc3cc[nH]c(=O)c3c(Nc3ccc(C4CN(C)C4)cc3)n2)cn1 [compound 140] | 0.027
Cc1ccnc(Nc2cc3cc[nH]c(=O)c3c(NC[C@@H]3CCCO3)n2)c1 [compound 505] | 0.063
COc1cncc(-c2cc3cc[nH]c(=O)c3c(Nc3ccc(C4CCN(C(C)C(=O)NCCO)CC4)c(C)c3)n2)n1 (stereo not drawn) [compound 122] | 0.092
CCN1CCN(Cc2n[nH]c3cc(Nc4nc(-c5cncnc5)cc5cc[nH]c(=O)c45)ccc23)CC1 [compound 202] | 0.027
COCC(O)CN1CCC(c2ccc(Nc3nc(-c4cncc(OC)n4)cc4cc[nH]c(=O)c34)cc2C)CC1 (stereo not drawn) [compound 142] | 0.007
CN(C)CCn1ccc2cc(Nc3cnccn3)nc(N[C@H]3CC[C@@H](O)CC3)c2c1=O [compound 387] | 0.033
O=c1[nH]ccc2cc(Nc3ccc(CCN4CCOCC4)cn3)nc(Nc3ccc(N4CCOCC4)cc3)c12 [compound 568] | 0.549
COC(=O)CCN1CCC(c2ccc(Nc3nc(-c4cncc(OC)n4)cc4cc[nH]c(=O)c34)cc2C)CC1 [compound 160] | 0.081
Cc1cc(Nc2nc(-c3cnn(CC(C)C)c3)cc3cc[nH]c(=O)c23)ccc1C1CCN(C2CC2)CC1 [compound 211] | 0.197
CCOCCc1cc2cc[nH]c(=O)c2c(Nc2ccc(C3CCN(C4CC4)CC3)c(C)c2)n1 [compound 227] | 0.398
COCCCN1CCC(c2ccc(Nc3nc(-c4cncc(OC)n4)cc4cc[nH]c(=O)c34)cc2C)CC1 [compound 141] | 0.007
CCN1CCN(Cc2n[nH]c3cc(Nc4nc(-c5cnc(OC)nc5)cc5cc[nH]c(=O)c45)ccc23)CC1 [compound 204] | 0.048
Cc1ccnc(Nc2cc3cc[nH]c(=O)c3c(NC(C)(C)CO)n2)c1 [compound 488] | 0.021
Cc1cc(Nc2nc(Nc3ccc(S(N)(=O)=O)cn3)cc3cc[nH]c(=O)c23)ccc1C1CCN(C2CC2)CC1 [compound 258] | 0.061
O=c1[nH]ccc2cc(Nc3ccccn3)nc(N3CCCC3)c12 [compound 279] | 1.42
CCn1ccc2cc(Nc3cnccn3)nc(N[C@H]3CCCC[C@@H]3O)c2c1=O (racemic) [compound 407] | 0.301
CN1CCN([C@H]2CC[C@H](c3ccc(Nc4nc(-c5cncnc5)cc5cc[nH]c(=O)c45)cc3)CC2)CC1 [compound 103] | 0.059
Cc1cc(Nc2nc(-c3ccc(N(C)C)nc3)cc3cc[nH]c(=O)c23)ccc1C1CCN(C2CC2)CC1 [compound 218] | 0.35
COc1cncc(-c2cc3cc[nH]c(=O)c3c(Nc3ccc(C4CCN(CC#N)CC4)c(C)c3)n2)n1 [compound 133] | 0.13
COc1cncc(-c2cc3cc[nH]c(=O)c3c(Nc3ccc(C4CCN(C5CCCC5)CC4)c(C)c3)n2)n1 [compound 62] | 0.011
Cc1ncc(-c2cc3cc[nH]c(=O)c3c(Nc3ccc(N4C[C@@H](C)O[C@@H](C)C4)nc3)n2)cn1 [compound 17] | 0.163
CCC(C)Nc1nc(Nc2ccccn2)cc2cc[nH]c(=O)c12 (stereo not drawn) [compound 263] | 0.756
COc1ccnc(Nc2cc3cc[nH]c(=O)c3c(Nc3ccc(C4CCN(C5CC5)CC4)c(C)c3)n2)c1 [compound 259] | 0.255
Cc1ccnc(Nc2cc3ccn(C)c(=O)c3c(NC[C@H]3CCCO3)n2)c1 [compound 512] | 0.158
CCC(C)(C)Nc1nc(Nc2cc(C)ccn2)cc2cc[nH]c(=O)c12 [compound 528] | 0.374

The remaining lines, values ahead:

IC50 [µM] | Structure (SMILES)
0.393 | Cc1ccnc(Nc2cc3ccn(C)c(=O)c3c(Nc3ccc(C4CCOCC4)nc3)n2)c1 [compound 372]
0.294 | Cc1ccnc(Nc2cc3ccn(C)c(=O)c3c(Nc3cccc(S(N)(=O)=O)c3)n2)c1 [compound 352]
0.012 | Cc1ccnc(Nc2cc3ccn(CCO)c(=O)c3c(N[C@H]3CCOC3)n2)c1 [compound 369]
0.803 | CNS(=O)(=O)c1ccc(Nc2nc(Nc3cnccn3)cc3ccn(C)c(=O)c23)cc1 [compound 350]
